{"source": "paper PMC9944328", "about": "(Nature Communications, 2023)", "biological_target": "SSTR2 (Homo sapiens, UniProt P30874)", "sequence (P30874 whole entry)": "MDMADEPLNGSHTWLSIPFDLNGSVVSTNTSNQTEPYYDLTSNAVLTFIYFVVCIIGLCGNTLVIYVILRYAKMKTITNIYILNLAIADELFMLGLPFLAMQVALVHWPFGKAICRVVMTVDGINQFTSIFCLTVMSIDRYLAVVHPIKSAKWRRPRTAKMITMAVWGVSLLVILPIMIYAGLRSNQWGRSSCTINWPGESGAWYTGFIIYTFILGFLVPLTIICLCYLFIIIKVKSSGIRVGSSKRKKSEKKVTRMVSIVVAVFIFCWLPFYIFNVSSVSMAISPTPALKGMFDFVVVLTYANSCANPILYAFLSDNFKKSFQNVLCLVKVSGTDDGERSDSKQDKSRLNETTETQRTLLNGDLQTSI", "experiment": "SSTRs Gi-mediated cAMP inhibition, GloSensor, HEK293, 5 μM forskolin, 15 min room temperature (SSTR2 wild-type);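 as to Bottom (best-fit value): normalized to the maximal wild-type response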;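 as to Bottom (best-fit): normalized to the maximal wild-type response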;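 as to Span (best-fit value): normalized to the maximal wild-type response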;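 as to Span (best-fit): normalized to the maximal wild-type response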;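 as to Top (best-fit value): normalized to the maximal wild-type response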;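 as to Top (best-fit): normalized to the maximal wild-type response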", "format": "cell-based", "design": "Best-fit Top, cAMP inhibition / Span, cAMP inhibition / Best-fit Bottom / Best-fit Top / Best-fit Span / Bottom / Span (best-fit value), cAMP inhibition / Top (best-fit value), cAMP inhibition: scale not given here", "experimental": "The levels of the intracellular 3′, 5′-cyclic AMP (cAMP) were measured by the GloSensor cAMP assay (Promega) as described in the previous studies[28],[41] which has been widely used. The human full-length SSTRs and mutants were cloned into the pcDNA3.1+ vector with a HA signal sequence followed by a Flag tag at the N-terminus. HEK293 cells (ATCC, CRL-1573) were seeded into 6-well microplates at a density of 1.0 × 10^6 cells/well and cultured for 24 h at 37 °C with 5% CO2. Cells were then co-transfected with SSTR wild-type or mutants and GloSensor plasmids. After 24 h of transfection, the cells were dissociated with TrypLE™ Express Enzyme (1X) (Thermo Fisher Scientific) and collected by centrifugation at 500 × g for 5 min. Then the collected cells were suspended in Hank’s balanced salt solution [HBSS (Thermo Fisher Scientific)] supplemented with […] (YEASEN), and then the suspension cells were seeded into 96-well plates with 90 μl/well. After incubating at room temperature for 40 min, 5 μM forskolin and ligands diluted in HBSS were added to each well and the plates were incubated at room temperature for 15 min. […] were measured using the Synergy H1 microplate reader (BioTek) and the data presented are means of at least three independent experiments."}
{"molecule": "C[C@@H](O)[C@@H]1NC(=O)[C@H](CCCCN)NC(=O)[C@@H](Cc2c[nH]c3ccccc23)NC(=O)[C@H](Cc2ccccc2)NC(=O)[C@@H](NC(=O)[C@H](N)Cc2ccccc2)CSSC[C@@H](C(=O)N[C@H](CO)[C@@H](C)O)NC1=O", "note": "[octreotide]", "values": [{"measurement": "Emax", "setting": "HEK293, Gi signaling, SSTR2 WT, n=6, read-out: Emax", "result": 100, "unit": "%"}, {"measurement": "Activation potency level", "setting": "SSTR2, Fig. 1", "result": "nanomolar level"}, {"measurement": "Bottom (best-fit value)", "setting": "WT-1, run 1, batch of I284A", "result": 6.42}, {"measurement": "Span (best-fit value)", "setting": "WT-1, run 1, batch of I284A", "result": 102.3}, {"measurement": "Top (best-fit value)", "setting": "WT-1, run 1, batch of I284A", "result": 108.8}, {"measurement": "Bottom (best-fit value)", "setting": "WT-1, run 1, batch of P286A", "result": 0.4925}, {"measurement": "Span (best-fit value)", "setting": "WT-1, run 1, batch of P286A", "result": 108.4}, {"measurement": "Top (best-fit value)", "setting": "WT-1, run 1, batch of P286A", "result": 108.9}, {"measurement": "Bottom (best-fit value)", "setting": "WT-1, run 1, batch of S285A", "result": -1.909}, {"measurement": "Span (best-fit value)", "setting": "WT-1, run 1, batch of S285A", "result": 108.3}, {"measurement": "Top (best-fit value)", "setting": "WT-1, run 1, batch of S285A", "result": 106.4}, {"measurement": "Bottom (best-fit value)", "setting": "WT-1, run 1, batch of T194A", "result": 5.269}, {"measurement": "Bottom (best-fit value)", "setting": "WT-1, run 1, batch of T287A", "result": 5.269}, {"measurement": "Span (best-fit value)", "setting": "WT-1, run 1, batch of T287A", "result": 95.18}, {"measurement": "Top (best-fit value)", "setting": "WT-1, run 1, batch of T287A", "result": 100.5}, {"measurement": "LogEC50 (best-fit value)", "setting": "WT-1, run 1, batch of W188A", "result": -10.06}, {"measurement": "Span (best-fit value)", "setting": "WT-1, run 1, batch of W188A", "result": 114.6}, {"measurement": "Top (best-fit value)", "setting": "WT-1, run 1, batch of W188A", "result": 120.5}, {"measurement": "Best-fit Bottom", "setting": "WT-1 of D295A set", "result": -0.7512}, {"measurement": "Best-fit Span", "setting": "WT-1 of D295A set", "result": 96.76}, {"measurement": "Best-fit Top", "setting": "WT-1 of D295A set", "result": 96}, {"measurement": "Span (best-fit)", "setting": "WT-1 of F208A set", "result": 95.18}, {"measurement": "Bottom (best-fit)", "setting": "WT-1 of F265A set", "result": 9.705}, {"measurement": "Top (best-fit)", "setting": "WT-1 of F265A set", "result": 105}, {"measurement": "Bottom (best-fit)", "setting": "WT-1 of F272A set", "result": 5.108}, {"measurement": "Span (best-fit)", "setting": "WT-1 of F272A set", "result": 89.16}, {"measurement": "Top (best-fit)", "setting": "WT-1 of F272A set", "result": 94.27}, {"measurement": "Best-fit Bottom", "setting": "WT-1 of F294A set", "result": 5.269}, {"measurement": "Best-fit Span", "setting": "WT-1 of F294A set", "result": 95.18}, {"measurement": "Best-fit Top", "setting": "WT-1 of F294A set", "result": 100.5}, {"measurement": "Best-fit Bottom", "setting": "WT-1 of K291A set", "result": 7.96}, {"measurement": "Best-fit Span", "setting": "WT-1 of K291A set", "result": 79.36}, {"measurement": "Best-fit Top", "setting": "WT-1 of K291A set", "result": 87.32}, {"measurement": "Best-fit Bottom", "setting": "WT-1 of L290A set", "result": -1.909}, {"measurement": "Best-fit Span", "setting": "WT-1 of L290A set", "result": 108.3}, {"measurement": "Best-fit Top", "setting": "WT-1 of L290A set", "result": 106.4}, {"measurement": "Bottom (best-fit)", "setting": "WT-1 of N276A set", "result": 7.96}, {"measurement": "Span (best-fit)", "setting": "WT-1 of N276A set", "result": 79.36}, {"measurement": "Top (best-fit)", "setting": "WT-1 of N276A set", "result": 87.32}, {"measurement": "Bottom (best-fit)", "setting": "WT-1 of P220A set", "result": 21.28}, {"measurement": "Span (best-fit)", "setting": "WT-1 of P220A set", "result": 73.55}, {"measurement": "Top (best-fit)", "setting": "WT-1 of P220A set", "result": 94.83}, {"measurement": "Best-fit Bottom", "setting": "WT-1 of S279A set", "result": 5.108}, {"measurement": "Best-fit Span", "setting": "WT-1 of S279A set", "result": 89.16}, {"measurement": "Best-fit Top", "setting": "WT-1 of S279A set", "result": 94.27}, {"measurement": "Bottom (best-fit)", "setting": "WT-1 of W269A set", "result": 6.42}, {"measurement": "Span (best-fit)", "setting": "WT-1 of W269A set", "result": 102.3}, {"measurement": "Top (best-fit)", "setting": "WT-1 of W269A set", "result": 108.8}, {"measurement": "Best-fit Bottom", "setting": "WT-1 of Y302A set", "result": 6.42}, {"measurement": "Best-fit Span", "setting": "WT-1 of Y302A set", "result": 102.3}, {"measurement": "Best-fit Top", "setting": "WT-1 of Y302A set", "result": 108.8}, {"measurement": "Bottom (best-fit value)", "setting": "WT-2, run 2, batch of I284A", "result": -0.5171}, {"measurement": "Span (best-fit value)", "setting": "WT-2, run 2, batch of I284A", "result": 111.1}, {"measurement": "Top (best-fit value)", "setting": "WT-2, run 2, batch of I284A", "result": 110.6}, {"measurement": "Bottom (best-fit value)", "setting": "WT-2, run 2, batch of P286A", "result": 4.88}, {"measurement": "LogEC50 (best-fit value)", "setting": "WT-2, run 2, batch of P286A", "result": -10.01}, {"measurement": "Span (best-fit value)", "setting": "WT-2, run 2, batch of P286A", "result": 102.3}, {"measurement": "Top (best-fit value)", "setting": "WT-2, run 2, batch of P286A", "result": 107.2}, {"measurement": "Bottom (best-fit value)", "setting": "WT-2, run 2, batch of S285A", "result": 5.269}, {"measurement": "Span (best-fit value)", "setting": "WT-2, run 2, batch of S285A", "result": 95.18}, {"measurement": "Top (best-fit value)", "setting": "WT-2, run 2, batch of S285A", "result": 100.5}, {"measurement": "Bottom (best-fit value)", "setting": "WT-2, run 2, batch of T194A", "result": 2.714}, {"measurement": "Bottom (best-fit value)", "setting": "WT-2, run 2, batch of T287A", "result": -7.526}, {"measurement": "Span (best-fit value)", "setting": "WT-2, run 2, batch of T287A", "result": 120.1}, {"measurement": "Top (best-fit value)", "setting": "WT-2, run 2, batch of T287A", "result": 112.6}, {"measurement": "Bottom (best-fit value)", "setting": "WT-2, run 2, batch of W188A", "result": 4.88}, {"measurement": "LogEC50 (best-fit value)", "setting": "WT-2, run 2, batch of W188A", "result": -10.01}, {"measurement": "Span (best-fit value)", "setting": "WT-2, run 2, batch of W188A", "result": 102.3}, {"measurement": "Top (best-fit value)", "setting": "WT-2, run 2, batch of W188A", "result": 107.2}, {"measurement": "Best-fit Bottom", "setting": "WT-2 of D295A set", "result": -0.7512}, {"measurement": "Best-fit Span", "setting": "WT-2 of D295A set", "result": 96.76}, {"measurement": "Best-fit Top", "setting": "WT-2 of D295A set", "result": 96}, {"measurement": "Span (best-fit)", "setting": "WT-2 of F208A set", "result": 79.83}, {"measurement": "Bottom (best-fit)", "setting": "WT-2 of F265A set", "result": 21.28}, {"measurement": "Span (best-fit)", "setting": "WT-2 of F265A set", "result": 73.55}, {"measurement": "Top (best-fit)", "setting": "WT-2 of F265A set", "result": 94.83}, {"measurement": "Bottom (best-fit)", "setting": "WT-2 of F272A set", "result": 5.269}, {"measurement": "Span (best-fit)", "setting": "WT-2 of F272A set", "result": 95.18}, {"measurement": "Top (best-fit)", "setting": "WT-2 of F272A set", "result": 100.5}, {"measurement": "Best-fit Bottom", "setting": "WT-2 of F294A set", "result": 2.714}, {"measurement": "Best-fit Span", "setting": "WT-2 of F294A set", "result": 101.1}, {"measurement": "Best-fit Top", "setting": "WT-2 of F294A set", "result": 103.8}, {"measurement": "Best-fit Bottom", "setting": "WT-2 of K291A set", "result": 0.9124}, {"measurement": "Best-fit Span", "setting": "WT-2 of K291A set", "result": 101.5}]}
